Each structure is given as a SMILES string.

The target of this assay is T1, KCNT1 (KNa1.1, Slack) (Homo sapiens, UniProt Q5JUK3).
T1 construct: expressed in transfected cells; host or cells: HEK-TREX (tetracycline-inducible HEK cell line)
T1 sequence (Q5JUK3 1-1230): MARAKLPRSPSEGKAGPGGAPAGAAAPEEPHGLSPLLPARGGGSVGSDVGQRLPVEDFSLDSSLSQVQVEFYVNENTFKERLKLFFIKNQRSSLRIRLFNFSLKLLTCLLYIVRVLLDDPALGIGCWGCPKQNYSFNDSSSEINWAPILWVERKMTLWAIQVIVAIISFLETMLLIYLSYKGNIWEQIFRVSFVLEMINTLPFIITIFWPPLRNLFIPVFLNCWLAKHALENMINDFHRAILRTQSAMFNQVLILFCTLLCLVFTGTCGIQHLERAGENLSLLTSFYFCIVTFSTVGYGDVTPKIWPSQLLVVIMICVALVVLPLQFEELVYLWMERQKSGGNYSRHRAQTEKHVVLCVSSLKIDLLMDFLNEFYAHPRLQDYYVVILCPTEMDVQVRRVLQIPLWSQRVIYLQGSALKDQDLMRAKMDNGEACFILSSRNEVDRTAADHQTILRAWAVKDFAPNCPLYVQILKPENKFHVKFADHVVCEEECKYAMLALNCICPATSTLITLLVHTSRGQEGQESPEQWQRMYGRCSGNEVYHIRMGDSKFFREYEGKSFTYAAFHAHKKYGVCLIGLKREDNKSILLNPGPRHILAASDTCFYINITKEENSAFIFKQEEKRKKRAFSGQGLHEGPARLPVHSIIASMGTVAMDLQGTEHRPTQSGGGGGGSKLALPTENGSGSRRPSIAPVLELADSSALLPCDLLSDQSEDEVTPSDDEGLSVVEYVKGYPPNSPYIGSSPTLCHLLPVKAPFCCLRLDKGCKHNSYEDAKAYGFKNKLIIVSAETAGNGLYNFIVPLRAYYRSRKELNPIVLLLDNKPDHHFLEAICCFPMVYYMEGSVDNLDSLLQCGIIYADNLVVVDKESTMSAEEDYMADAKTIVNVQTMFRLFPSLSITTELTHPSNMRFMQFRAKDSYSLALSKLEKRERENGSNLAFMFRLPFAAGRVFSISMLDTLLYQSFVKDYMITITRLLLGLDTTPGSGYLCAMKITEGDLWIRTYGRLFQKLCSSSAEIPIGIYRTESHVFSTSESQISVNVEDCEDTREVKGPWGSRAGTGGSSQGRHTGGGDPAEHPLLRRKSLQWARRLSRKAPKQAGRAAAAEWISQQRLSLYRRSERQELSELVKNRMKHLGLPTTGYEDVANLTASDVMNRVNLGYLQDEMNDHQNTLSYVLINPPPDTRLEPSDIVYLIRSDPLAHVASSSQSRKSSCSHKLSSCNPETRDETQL
As to the kind of experiment: KCNT1 patch clamp assay (SyncroPatch 384PE automated patch clamp). The following applies: tetracycline inducible HEK-TREX cell line; perforated patch; step from −80 mV to 0 mV; room temperature; read-out: KCNT1-WT IC50. The class given is cell-based. The gist of the method: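 Tetracycline-inducible HEK-TREX cells; perforated-patch (10 μM escin) population recordings at room temperature, holding −80 mV with 100 ms step to 0 mV.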
(In general: In patch-clamp work, channel activity is measured electrically.)

With `CC[C@H](NC(=O)c1cc(C)nn1-c1ccccc1)c1nc(-c2ccnc(C)c2)no1` [Compound 218, (S)-3-methyl-N-(1-(3-(2-methylpyridin-4-yl)-1,2,4-oxadiazol-5-yl)propyl)-1-phenyl-1H-pyrazole-5-carboxamide], the 50% inhibitory concentration (IC50) (commonly the concentration that gives 50% inhibition) is not above 1000 nM. In the case of `Cc1cc(C(=O)N[C@@H](C)c2nc(-c3ccnc(C(F)(F)F)c3)no2)n(C)n1` [Compound 252], the IC50 lay within 1000 to 20000 nM. Next, `CC(=O)Oc1cccc(-c2noc(C(C)NC(=O)c3cc(C(F)(F)F)nn3C)n2)c1` (racemic) [Compound 185, 3-(5-(1-(1-methyl-3-(trifluoromethyl)-1H-pyrazole-5-carboxamido)ethyl)-1,2,4-oxadiazol-3-yl)phenyl acetate]: 1000 to 20000 nM; `C[C@H](NC(=O)c1cc(C(F)(F)F)nn1C)c1nc(-c2ccnc(OCC3CC3)c2)no1` [Compound 214, (S)—N-(1-(3-(2-(cyclopropylmethoxy)pyridin-4-yl)-1,2,4-oxadiazol-5-yl)ethyl)-1-methyl-3-(trifluoromethyl)-1H-pyrazole-5-carboxamide]: not above 1000 nM.

As for `CC[C@H](NC(=O)c1cc(C(F)(F)F)nn1C)c1nc(-c2ccnc(C(F)(F)F)c2)no1` [Compound 236, (S)-1-methyl-3-(trifluoromethyl)-N-(1-(3-(2-(trifluoromethyl)pyridin-4-yl)-1,2,4-oxadiazol-5-yl)propyl)-1H-pyrazole-5-carboxamide], the half-inhibitory concentration (IC50) was not above 1000 nM. Next, `COC1CN(c2cc(-c3noc([C@H](C)NC(=O)c4cc(C(F)(F)F)nn4C)n3)ccn2)C1` [Compound 213, (S)—N-(1-(3-(2-(3-methoxyazetidin-1-yl)pyridin-4-yl)-1,2,4-oxadiazol-5-yl)ethyl)-1-methyl-3-(trifluoromethyl)-1H-pyrazole-5-carboxamide]: 1000 to 20000 nM; `COC(=O)CC(NC(=O)c1cc(C(F)(F)F)nn1C)c1nc(-c2cccc(F)c2)no1` (single isomer, unassigned) [Compound 126, methyl 3-[3-(3-fluorophenyl)-1,2,4-oxadiazol-5-yl]-3-[[2-methyl-5-(trifluoromethyl)pyrazole-3-carbonyl]amino]propanoate]: not above 1000 nM. Turning to `Cn1nc(C(F)(F)F)cc1C(=O)NC(CC#N)c1nc(-c2cccc(F)c2)no1` (centres unmarked) [Compound 141], the IC50 was 1000 to 20000 nM. Next, `CC(NC(=O)c1cc(C(F)(F)F)nn1C)c1nc(-c2cccc(CO)c2)no1` (centres unmarked) [Compound 176, N-(1-(3-(3-(hydroxymethyl)phenyl)-1,2,4-oxadiazol-5-yl)ethyl)-1-methyl-3-(trifluoromethyl)-1H-pyrazole-5-carboxamide]: 1000 to 20000 nM. Next, `COC(=O)NCC(NC(=O)c1cc(C(F)(F)F)nn1C)c1nc(-c2cccc(F)c2)no1` (centres unmarked) [Compound 168]: 1000 to 20000 nM.

Take `C[C@H](NC(=O)c1cc(C(F)(F)F)nn1CC(=O)N1CCCC1)c1nc(-c2ccnc(C(F)(F)F)c2)no1` [Compound 249, (S)-1-(2-oxo-2-(pyrrolidin-1-yl)ethyl)-3-(trifluoromethyl)-N-(1-(3-(2-(trifluoromethyl)pyridin-4-yl)-1,2,4-oxadiazol-5-yl)ethyl)-1H-pyrazole-5-carboxamide]: the concentration for half-maximal inhibition (IC50) is not above 1000 nM.

As to `C[C@H](NC(=O)c1cc(C(F)(F)F)nn1C)c1nc(-c2ccnc(CS(C)(=O)=O)c2)no1` [Compound 264, 2-methyl-N-[(1S)-1-[3-[2-(methylsulfonylmethyl)-4-pyridyl]-1,2,4-oxadiazol-5-yl]ethyl]-5-(trifluoromethyl)pyrazole-3-carboxamide], the concentration for half-maximal inhibition (IC50) was not below 20000 nM.

In the case of `Cn1nc(C(F)(F)F)cc1C(=O)NC(CC(=O)N1CC(O)C1)c1nc(-c2cccc(F)c2)no1` (centres unmarked) [Compound 124], the IC50 was not below 20000 nM.

With `C[C@H](NC(=O)OC(C)(C)C)c1nc(-c2ccnc(C3(C)CC3)c2)no1` [Compound 272, tert-butyl (S)-(1-(3-(2-(1-methylcyclopropyl)pyridin-4-yl)-1,2,4-oxadiazol-5-yl)ethyl)carbamate], the IC50 fell in the range of 1000 to 20000 nM. Next, `Cc1cccc(-c2noc(C(C)NC(=O)c3c(C)cnn3C(C)C)n2)c1` (centres unmarked) [Compound 55]: 1000 to 20000 nM; `CC(NC(=O)c1cc(C2CC2)nn1C)c1nc(-c2ccc(F)cc2)no1` (centres unmarked) [Compound 8]: 1000 to 20000 nM; `CC[C@H](NC(=O)OC(C)(C)C)c1nc(-c2ccnc(C)c2)no1` [Compound 284, tert-butyl (S)-(1-(3-(2-methylpyridin-4-yl)-1,2,4-oxadiazol-5-yl)propyl)carbamate]: 1000 to 20000 nM. Next, `C[C@H](NC(=O)c1cc(C(F)(F)F)nn1Cc1cccnc1)c1nc(-c2ccnc(C(F)(F)F)c2)no1` [Compound 253, (S)-1-(pyridin-3-ylmethyl)-3-(trifluoromethyl)-N-(1-(3-(2-(trifluoromethyl)pyridin-4-yl)-1,2,4-oxadiazol-5-yl)ethyl)-1H-pyrazole-5-carboxamide]: not above 1000 nM; `Cn1nc(C2CC2)cc1C(=O)N[C@@H](c1nc(-c2cccc(F)c2)no1)C1CC1` (single isomer, unassigned) [Compound 108]: not above 1000 nM. `COCCn1nc(C(F)(F)F)cc1C(=O)N[C@@H](C)c1nc(-c2ccnc(C(F)(F)F)c2)no1` [Compound 239, (S)-1-(2-methoxyethyl)-3-(trifluoromethyl)-N-(1-(3-(2-(trifluoromethyl)pyridin-4-yl)-1,2,4-oxadiazol-5-yl)ethyl)-1H-pyrazole-5-carboxamide]: the 50% inhibitory concentration (IC50) was not above 1000 nM. Next, `C[C@H](NC(=O)c1cc(C2CC2)nn1C)c1nc(-c2cccc(F)c2)no1` (single isomer, unassigned) [Compound 94]: not below 20000 nM; `Cc1nn(C(C)C)cc1C(=O)NC(C)c1nc(-c2ccc(OC(F)(F)F)cc2)no1` (centres unmarked) [Compound 99]: 1000 to 20000 nM.

For the compound `CC[C@H](NC(=O)c1cc(C)nn1C1CCOCC1)c1nc(-c2ccnc(C)c2)no1` [Compound 217, (S)-3-methyl-N-(1-(3-(2-methylpyridin-4-yl)-1,2,4-oxadiazol-5-yl)propyl)-1-(tetrahydro-2H-pyran-4-yl)-1H-pyrazole-5-carboxamide], the IC50 is 1000 to 20000 nM.

With `Cn1nc(C(F)(F)F)cc1C(=O)NC(CC#N)c1nc(-c2cccc(F)c2)no1` (centres unmarked) [Compound 140], the half-maximal inhibitory concentration (IC50) was 1000 to 20000 nM. Next, `C[C@@H](NC(=O)c1cc(C(F)(F)F)nn1C(F)F)c1nc(-c2cccc(Cl)c2)no1` (single isomer, unassigned) [Compound 82]: not above 1000 nM.

For `CC[C@H](NC(=O)c1cc(C(F)(F)F)nn1C)c1nc(-c2cccc(F)c2)no1` [Compound 105], the IC50 was not above 1000 nM. Regarding `CC(NC(=O)c1cc(C(F)(F)F)nn1C)c1nc(-c2cccc(C(=O)O)c2)no1` (centres unmarked) [Compound 182, 3-(5-(1-(1-methyl-3-(trifluoromethyl)-1H-pyrazole-5-carboxamido)ethyl)-1,2,4-oxadiazol-3-yl)benzoic Acid], the IC50 was not below 20000 nM. For `CC[C@H](NC(=O)c1ccnn1-c1ccccc1)c1nc(-c2ccnc(C)c2)no1` [Compound 215, (S)—N-(1-(3-(2-methylpyridin-4-yl)-1,2,4-oxadiazol-5-yl)propyl)-1-phenyl-1H-pyrazole-5-carboxamide], the IC50 fell in the range of 1000 to 20000 nM.

As for `C[C@@H](NC(=O)c1cc(C(F)(F)F)nn1C)c1nc(-c2ccc(F)c(F)c2)no1` (single isomer, unassigned) [Compound 76], the concentration for half-maximal inhibition (IC50) was not above 1000 nM. In the case of `CC(=O)NC[C@@H](NC(=O)c1cc(C(F)(F)F)nn1C)c1nc(-c2cccc(F)c2)no1` [Compound 137], the IC50 fell in the range of 1000 to 20000 nM.

As to `COC[C@H](NC(=O)c1cc(C(F)(F)F)nn1C)c1nc(-c2cccc(C)c2)no1` (single isomer, unassigned) [Compound 81], the IC50 was not above 1000 nM. For the compound `C[C@H](NC(=O)c1cc(C(F)(F)F)nn1CC(=O)N(C)C)c1nc(-c2ccnc(C3CC3)c2)no1` [Compound 230, (S)—N-(1-(3-(2-cyclopropylpyridin-4-yl)-1,2,4-oxadiazol-5-yl)ethyl)-1-(2-(dimethylamino)-2-oxoethyl)-3-(trifluoromethyl)-1H-pyrazole-5-carboxamide], the IC50 is not above 1000 nM.

The record behind these values is patent US20220259193A1, “KCNT1 INHIBITORS AND METHODS OF USE” (Praxis Precision Medicines, Inc., priority 2019, published 2022).
